Test results taken from ChEMBL document CHEMBL5465560, “Selectivity Literature for EUbOPEN Chemogenomic Library” (2024).

Key:
[1] = target: T1, Peripheral plasma membrane protein CASK (Homo sapiens) (UniProt O14936); assay: Selectivity interaction (Kinase panel (DSF assay)) EUB0001559a CASK
T1 sequence (whole entry): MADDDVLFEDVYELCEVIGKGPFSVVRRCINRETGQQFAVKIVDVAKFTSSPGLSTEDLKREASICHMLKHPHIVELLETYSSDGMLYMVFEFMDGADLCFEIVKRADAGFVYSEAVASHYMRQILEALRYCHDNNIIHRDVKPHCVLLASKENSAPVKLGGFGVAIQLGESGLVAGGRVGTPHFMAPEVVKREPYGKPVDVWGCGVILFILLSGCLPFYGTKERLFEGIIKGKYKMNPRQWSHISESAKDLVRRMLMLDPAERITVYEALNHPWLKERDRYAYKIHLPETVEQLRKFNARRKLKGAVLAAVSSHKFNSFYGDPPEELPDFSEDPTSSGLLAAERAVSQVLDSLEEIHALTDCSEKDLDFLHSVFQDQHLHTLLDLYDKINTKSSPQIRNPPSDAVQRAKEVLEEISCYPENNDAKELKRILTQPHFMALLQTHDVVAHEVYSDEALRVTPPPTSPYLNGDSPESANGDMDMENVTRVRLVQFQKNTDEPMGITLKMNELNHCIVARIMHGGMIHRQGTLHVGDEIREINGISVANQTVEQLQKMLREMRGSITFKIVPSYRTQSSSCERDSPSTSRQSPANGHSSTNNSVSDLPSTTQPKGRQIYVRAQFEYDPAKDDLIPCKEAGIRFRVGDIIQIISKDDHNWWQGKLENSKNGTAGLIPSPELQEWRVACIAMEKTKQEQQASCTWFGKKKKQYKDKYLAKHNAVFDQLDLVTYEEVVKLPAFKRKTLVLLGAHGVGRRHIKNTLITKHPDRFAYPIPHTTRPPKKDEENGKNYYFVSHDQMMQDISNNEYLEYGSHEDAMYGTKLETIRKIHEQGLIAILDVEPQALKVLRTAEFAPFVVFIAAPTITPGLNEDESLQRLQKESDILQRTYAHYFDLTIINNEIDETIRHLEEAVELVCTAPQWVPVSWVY

[2] = target: Tyrosine-protein kinase CSK (Homo sapiens) (UniProt P41240); assay: Selectivity interaction (SelectScreen profiling (Invitrogen)) EUB0000607a CSK; details: at 2 µM
Tyrosine-protein kinase CSK (Homo sapiens), sequence (P41240 2-450 limits assumed): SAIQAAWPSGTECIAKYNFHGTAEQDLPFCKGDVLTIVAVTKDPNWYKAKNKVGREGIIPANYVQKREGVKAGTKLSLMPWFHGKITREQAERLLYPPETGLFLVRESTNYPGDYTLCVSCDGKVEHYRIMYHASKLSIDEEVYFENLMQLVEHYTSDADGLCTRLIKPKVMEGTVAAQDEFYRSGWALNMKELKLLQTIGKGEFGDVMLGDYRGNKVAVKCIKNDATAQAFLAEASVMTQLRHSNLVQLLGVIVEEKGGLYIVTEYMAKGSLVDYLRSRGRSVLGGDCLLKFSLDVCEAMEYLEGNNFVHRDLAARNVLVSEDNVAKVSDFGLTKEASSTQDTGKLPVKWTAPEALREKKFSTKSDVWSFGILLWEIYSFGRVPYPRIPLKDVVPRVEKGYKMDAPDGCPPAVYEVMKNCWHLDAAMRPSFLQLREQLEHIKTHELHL

[3] = test system: Tyrosine-protein kinase ABL1 (Homo sapiens), P00519 [T315I]; assay: Selectivity interaction (KinomeScan (DiscoverX)) EUB0000045b ABL1; details: at 1 µM
[4] = target: T2, MAP/microtubule affinity-regulating kinase 4 (Homo sapiens) (UniProt Q96L34); assay: Selectivity interaction (KinomeScan (DiscoverX)) EUB0000045b MARK4
T2 sequence (whole entry): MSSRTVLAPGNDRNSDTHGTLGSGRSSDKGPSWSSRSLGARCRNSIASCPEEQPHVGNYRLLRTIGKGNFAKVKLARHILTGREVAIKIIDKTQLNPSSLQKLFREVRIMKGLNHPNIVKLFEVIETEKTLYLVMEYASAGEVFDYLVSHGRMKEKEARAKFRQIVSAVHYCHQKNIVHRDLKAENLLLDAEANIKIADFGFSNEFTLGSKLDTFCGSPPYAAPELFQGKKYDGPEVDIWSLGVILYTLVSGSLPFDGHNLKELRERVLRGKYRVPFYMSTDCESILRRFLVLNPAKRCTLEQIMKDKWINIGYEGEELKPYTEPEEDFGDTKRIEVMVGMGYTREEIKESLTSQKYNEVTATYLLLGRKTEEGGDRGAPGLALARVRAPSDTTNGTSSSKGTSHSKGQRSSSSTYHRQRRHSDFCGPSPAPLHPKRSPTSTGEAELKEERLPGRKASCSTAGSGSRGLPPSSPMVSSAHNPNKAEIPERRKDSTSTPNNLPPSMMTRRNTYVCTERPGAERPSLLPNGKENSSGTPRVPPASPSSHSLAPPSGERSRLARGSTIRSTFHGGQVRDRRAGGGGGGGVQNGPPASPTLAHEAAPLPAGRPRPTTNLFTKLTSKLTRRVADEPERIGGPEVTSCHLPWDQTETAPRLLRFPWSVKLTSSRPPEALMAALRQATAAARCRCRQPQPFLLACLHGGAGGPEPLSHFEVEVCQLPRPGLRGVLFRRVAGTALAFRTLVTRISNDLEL

[5] = target: Ribosomal protein S6 kinase alpha-1 (Homo sapiens, UniProt Q15418); assay: Selectivity interaction (KinomeScan (DiscoverX)) EUB0000045b RPS6KA1; details: at 1 µM
Ribosomal protein S6 kinase alpha-1, sequence (Q15418 whole entry): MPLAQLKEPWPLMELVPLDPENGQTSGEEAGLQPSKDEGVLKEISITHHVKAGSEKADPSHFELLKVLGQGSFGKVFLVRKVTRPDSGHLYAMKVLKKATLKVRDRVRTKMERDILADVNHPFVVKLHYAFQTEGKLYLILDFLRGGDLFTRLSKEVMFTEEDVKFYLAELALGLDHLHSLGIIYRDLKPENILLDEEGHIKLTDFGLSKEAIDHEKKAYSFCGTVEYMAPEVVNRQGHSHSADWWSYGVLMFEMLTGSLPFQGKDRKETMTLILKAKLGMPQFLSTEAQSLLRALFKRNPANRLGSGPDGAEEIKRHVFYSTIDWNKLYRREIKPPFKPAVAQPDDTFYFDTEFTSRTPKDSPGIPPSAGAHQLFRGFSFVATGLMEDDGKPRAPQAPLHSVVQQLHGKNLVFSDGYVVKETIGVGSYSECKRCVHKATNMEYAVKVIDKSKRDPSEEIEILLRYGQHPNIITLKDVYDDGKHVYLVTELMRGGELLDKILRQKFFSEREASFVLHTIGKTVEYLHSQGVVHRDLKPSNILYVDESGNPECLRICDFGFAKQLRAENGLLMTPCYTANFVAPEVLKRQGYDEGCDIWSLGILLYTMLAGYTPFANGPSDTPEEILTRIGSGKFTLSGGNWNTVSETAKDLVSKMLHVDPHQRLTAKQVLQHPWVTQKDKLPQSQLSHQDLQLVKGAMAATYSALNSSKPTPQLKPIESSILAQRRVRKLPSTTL

[6] = target: Histone-lysine N-methyltransferase KMT5B (Homo sapiens) (UniProt Q4FZB7); details: at 1 µM
Histone-lysine N-methyltransferase KMT5B (Homo sapiens), sequence (Q4FZB7 whole entry, looked up): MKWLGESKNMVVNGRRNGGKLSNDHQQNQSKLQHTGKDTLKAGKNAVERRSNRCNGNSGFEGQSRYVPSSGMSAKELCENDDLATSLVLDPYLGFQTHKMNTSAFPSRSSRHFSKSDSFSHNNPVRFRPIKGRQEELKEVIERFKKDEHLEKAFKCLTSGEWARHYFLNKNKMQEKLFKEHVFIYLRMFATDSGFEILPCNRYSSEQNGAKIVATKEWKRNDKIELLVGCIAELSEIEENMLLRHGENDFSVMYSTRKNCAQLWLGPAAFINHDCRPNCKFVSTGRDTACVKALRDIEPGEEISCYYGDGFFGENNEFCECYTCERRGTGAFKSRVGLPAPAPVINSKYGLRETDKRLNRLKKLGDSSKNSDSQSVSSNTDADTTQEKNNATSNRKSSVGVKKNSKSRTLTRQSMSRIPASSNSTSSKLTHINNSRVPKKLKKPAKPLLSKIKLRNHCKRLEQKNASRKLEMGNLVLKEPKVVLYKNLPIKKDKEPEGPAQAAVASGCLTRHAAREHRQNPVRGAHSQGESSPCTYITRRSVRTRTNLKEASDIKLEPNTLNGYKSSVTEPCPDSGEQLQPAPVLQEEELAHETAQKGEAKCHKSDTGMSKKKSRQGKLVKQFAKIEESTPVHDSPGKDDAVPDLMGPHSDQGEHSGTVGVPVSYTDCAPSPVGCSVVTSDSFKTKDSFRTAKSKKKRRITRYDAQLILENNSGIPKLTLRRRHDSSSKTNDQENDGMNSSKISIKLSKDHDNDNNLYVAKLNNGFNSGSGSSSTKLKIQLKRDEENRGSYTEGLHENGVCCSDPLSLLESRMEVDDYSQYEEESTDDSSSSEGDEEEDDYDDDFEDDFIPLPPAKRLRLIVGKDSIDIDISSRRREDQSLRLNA

[7] = target: Cyclin-dependent kinase 17 (Homo sapiens) (UniProt Q00537); assay: Selectivity interaction (ActivX KiNativ screen (kinase selectivity in THP-1 cell lysates)) EUB0000639a CDK17; format: subcellular; details: lysate
Cyclin-dependent kinase 17 (Homo sapiens), sequence (Q00537 whole entry, looked up): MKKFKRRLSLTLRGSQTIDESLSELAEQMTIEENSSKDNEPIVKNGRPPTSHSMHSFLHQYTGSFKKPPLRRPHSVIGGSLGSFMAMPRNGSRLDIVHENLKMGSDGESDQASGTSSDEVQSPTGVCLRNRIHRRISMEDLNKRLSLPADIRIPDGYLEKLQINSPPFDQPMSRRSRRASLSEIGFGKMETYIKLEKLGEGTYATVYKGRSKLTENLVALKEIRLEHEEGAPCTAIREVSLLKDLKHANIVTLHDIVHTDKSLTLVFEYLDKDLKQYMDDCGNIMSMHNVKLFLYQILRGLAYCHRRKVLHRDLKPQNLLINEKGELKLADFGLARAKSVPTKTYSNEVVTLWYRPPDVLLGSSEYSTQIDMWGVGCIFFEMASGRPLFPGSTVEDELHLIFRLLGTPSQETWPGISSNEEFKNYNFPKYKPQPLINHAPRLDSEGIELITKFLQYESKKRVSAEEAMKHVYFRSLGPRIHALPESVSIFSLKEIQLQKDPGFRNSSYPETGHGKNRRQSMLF

[8] = target: Dual specificity mitogen-activated protein kinase kinase 2 (Homo sapiens) (UniProt P36507); assay: Selectivity interaction (Kinase panel (Invitrogen)) EUB0000639a MAP2K2; details: at 200 nM
Dual specificity mitogen-activated protein kinase kinase 2 (Homo sapiens), sequence (P36507 whole entry): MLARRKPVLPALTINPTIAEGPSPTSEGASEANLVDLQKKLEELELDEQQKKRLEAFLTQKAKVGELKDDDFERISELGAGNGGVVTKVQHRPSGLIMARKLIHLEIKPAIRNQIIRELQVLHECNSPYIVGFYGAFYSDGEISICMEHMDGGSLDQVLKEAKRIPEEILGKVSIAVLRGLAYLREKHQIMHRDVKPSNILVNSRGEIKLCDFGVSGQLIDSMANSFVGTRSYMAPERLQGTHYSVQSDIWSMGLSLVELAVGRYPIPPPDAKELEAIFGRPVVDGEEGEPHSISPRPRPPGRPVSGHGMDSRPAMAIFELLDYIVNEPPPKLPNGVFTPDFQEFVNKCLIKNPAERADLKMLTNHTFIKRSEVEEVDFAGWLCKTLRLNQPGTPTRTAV

[9] = target: Serine/threonine-protein kinase 16 (Homo sapiens, UniProt O75716); assay: Selectivity interaction (ActivX KiNativ screen (kinase selectivity in THP-1 cell lysates)) EUB0000639a STK16; format: subcellular; details: lysate, at 0.04 µM
Serine/threonine-protein kinase 16, sequence (O75716 whole entry): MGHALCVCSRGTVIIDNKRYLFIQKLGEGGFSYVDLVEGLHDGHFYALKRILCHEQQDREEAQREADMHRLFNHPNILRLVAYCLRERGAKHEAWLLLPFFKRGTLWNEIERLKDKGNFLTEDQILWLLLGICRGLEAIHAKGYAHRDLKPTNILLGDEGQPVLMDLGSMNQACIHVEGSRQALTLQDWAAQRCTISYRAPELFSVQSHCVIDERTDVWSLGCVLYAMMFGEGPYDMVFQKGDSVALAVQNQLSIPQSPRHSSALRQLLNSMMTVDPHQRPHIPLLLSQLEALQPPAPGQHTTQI

[10] = target: Tyrosine-protein kinase HCK (Homo sapiens) (UniProt P08631); assay: Selectivity interaction (KinomeScan (DiscoverX)) EUB0000229b HCK; details: at 10 µM
Tyrosine-protein kinase HCK (Homo sapiens), sequence (P08631 2-526 limits assumed): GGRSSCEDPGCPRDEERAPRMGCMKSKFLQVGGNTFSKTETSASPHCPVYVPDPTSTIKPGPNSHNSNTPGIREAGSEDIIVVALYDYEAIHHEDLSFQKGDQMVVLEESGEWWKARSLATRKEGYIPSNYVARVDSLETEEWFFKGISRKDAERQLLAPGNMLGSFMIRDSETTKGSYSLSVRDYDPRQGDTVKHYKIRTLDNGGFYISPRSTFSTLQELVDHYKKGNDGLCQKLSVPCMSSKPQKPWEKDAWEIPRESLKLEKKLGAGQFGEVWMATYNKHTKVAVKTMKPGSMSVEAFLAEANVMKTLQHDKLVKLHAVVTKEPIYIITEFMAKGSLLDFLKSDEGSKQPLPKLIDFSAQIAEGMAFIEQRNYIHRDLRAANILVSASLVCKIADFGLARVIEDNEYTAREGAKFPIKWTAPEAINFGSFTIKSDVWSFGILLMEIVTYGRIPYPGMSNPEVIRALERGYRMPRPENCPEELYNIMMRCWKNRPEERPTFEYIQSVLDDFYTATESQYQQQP

[11] = target: T3, Testis-specific serine/threonine-protein kinase 1 (Homo sapiens) (UniProt Q9BXA7); assay: Selectivity interaction (ProQinase) EUB0000171b TSSK1A
T3 sequence (whole entry): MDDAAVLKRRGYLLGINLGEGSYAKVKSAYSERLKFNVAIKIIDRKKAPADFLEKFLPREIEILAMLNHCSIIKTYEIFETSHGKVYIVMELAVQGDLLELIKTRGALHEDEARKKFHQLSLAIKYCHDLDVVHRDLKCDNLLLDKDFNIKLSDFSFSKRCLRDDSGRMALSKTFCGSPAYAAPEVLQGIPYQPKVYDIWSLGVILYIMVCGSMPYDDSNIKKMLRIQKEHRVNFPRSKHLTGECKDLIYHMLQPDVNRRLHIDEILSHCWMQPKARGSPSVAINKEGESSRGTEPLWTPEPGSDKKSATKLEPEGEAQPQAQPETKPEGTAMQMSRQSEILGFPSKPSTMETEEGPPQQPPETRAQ

[12] = target: Nuclear receptor subfamily 1 group I member 2 (Homo sapiens, UniProt O75469); assay: Selectivity interaction (Pregnane X Receptor (PXR, SXR) binding, human recombinant ) EUB0000877a NR1I2
Nuclear receptor subfamily 1 group I member 2, sequence (O75469 whole entry): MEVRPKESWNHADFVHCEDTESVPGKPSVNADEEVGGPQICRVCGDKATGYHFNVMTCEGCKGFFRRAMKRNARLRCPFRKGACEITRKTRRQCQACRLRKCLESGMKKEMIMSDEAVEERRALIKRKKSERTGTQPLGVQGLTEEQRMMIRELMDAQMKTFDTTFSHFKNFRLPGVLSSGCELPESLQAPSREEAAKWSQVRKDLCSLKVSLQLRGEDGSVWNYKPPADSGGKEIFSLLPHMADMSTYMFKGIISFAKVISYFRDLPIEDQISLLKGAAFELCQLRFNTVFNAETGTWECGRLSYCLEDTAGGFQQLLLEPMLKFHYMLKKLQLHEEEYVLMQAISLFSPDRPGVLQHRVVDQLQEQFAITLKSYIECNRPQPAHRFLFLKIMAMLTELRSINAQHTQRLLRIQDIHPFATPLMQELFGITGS

CN(C(=O)c1cnn2cccnc12)c1cc2c(cc1N1CCOCC1)C(=O)N(C[C@@H](F)C(C)(C)O)C2
dTM [1]: 0 K

CNC(=O)Nc1ccc(-c2nc(N3CC4CCC(C3)O4)c3cnn(C4CCC5(CC4)OCCO5)c3n2)cc1
% of inhibition [2]: -1%

C=CC(=O)Nc1cc(-n2c(=O)ccc3cnc4ccc(-c5ccc(NS(C)(=O)=O)cc5)cc4c32)ccc1C
% of control [3]: 87%
% of control ([4]; at 1 µM): 80%
% of control ([4]; at 10 µM): 76%
% of control [5]: 91%

CNCCN1CCC(c2cc(CN(C)C(=O)c3cccc(Oc4ccccc4)c3)ccn2)CC1
% activity [6]: > 90%

CC[C@@H]1[C@H](F)C(=O)N[C@@H]1COc1nccc2cc(C(N)=O)c(OC)cc12 [ZIMLOVISERTIB]
% of inhibition ([7]; at 0.01 µM): -4.8%
% of inhibition ([7]; at 0.04 µM): -2.9%
% of inhibition ([7]; at 0.2 µM): 2.8%
% of inhibition ([7]; at 1 µM): 6%
% of inhibition ([7]; at 5 µM): 5.6%
% of inhibition [8]: 5.73%
% of inhibition [9]: 13.8%

COc1cc(N(C)c2ccnc3ccc(C(F)(F)F)cc23)cc(OC)c1OC
% binding [10]: 100%

C=CC(=O)Nc1cccc(C(=O)Nc2ccc(Nc3cc(-c4[nH]c(SC)nc4C)ccn3)cc2)c1
% of control ([11]; at 1 µM): 76%
% of control ([11]; at 5 µM): 72%

CCC(=O)N1CC[C@H](Nc2ncnc3c2CN(c2cnc(OC)c(C(F)(F)F)c2)CC3)C1 [LENIOLISIB]
IC50 [12]: > 30 µM
